Consider 24 compounds from patent US20230135152A1 (ACURASTEM INCORPORATED, priority 2020, published 2023).

Structures are written as SMILES. A value given as a limit tells only on which side of the number the result lay.

In experiment [1] the target is T1, PIKFYVE (Homo sapiens, UniProt Q9Y2I7). As to the kind of experiment: PIKFYVE assay (luciferase ADP-Glo kinase assay, Promega). The experiment is classed as biochemical. A digest of the protocol:
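ADP generated in the kinase reaction was detected by ADP-Glo luminescence (luciferase).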
A general note: ADP-Glo first removes unused ATP, then detects ADP through luciferase.

The target of experiment [2] is T1, PIKFYVE. As to the kind of experiment: Cell-based Pikfyve inhibition activity assay (EEA1 staining, mean vesicle size in BJ fibroblast cells). As to conditions: Table 4, 4 hours treatment, 3 μM Apilimod = 100% inhibition. A digest of the protocol: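 BJ fibroblasts treated 4 h at 37° C with eleven 3-fold doses (0.03-3000 nM), then fixed and stained for EEA1. Confocal images (20×, 16 tiles/well) analysed for mean vesicle size. Normalised to 0.5% DMSO (0%) and 3 μM apilimod (100%); dose-response fitted with variable slope.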

T1 sequence (Q9Y2I7 whole entry): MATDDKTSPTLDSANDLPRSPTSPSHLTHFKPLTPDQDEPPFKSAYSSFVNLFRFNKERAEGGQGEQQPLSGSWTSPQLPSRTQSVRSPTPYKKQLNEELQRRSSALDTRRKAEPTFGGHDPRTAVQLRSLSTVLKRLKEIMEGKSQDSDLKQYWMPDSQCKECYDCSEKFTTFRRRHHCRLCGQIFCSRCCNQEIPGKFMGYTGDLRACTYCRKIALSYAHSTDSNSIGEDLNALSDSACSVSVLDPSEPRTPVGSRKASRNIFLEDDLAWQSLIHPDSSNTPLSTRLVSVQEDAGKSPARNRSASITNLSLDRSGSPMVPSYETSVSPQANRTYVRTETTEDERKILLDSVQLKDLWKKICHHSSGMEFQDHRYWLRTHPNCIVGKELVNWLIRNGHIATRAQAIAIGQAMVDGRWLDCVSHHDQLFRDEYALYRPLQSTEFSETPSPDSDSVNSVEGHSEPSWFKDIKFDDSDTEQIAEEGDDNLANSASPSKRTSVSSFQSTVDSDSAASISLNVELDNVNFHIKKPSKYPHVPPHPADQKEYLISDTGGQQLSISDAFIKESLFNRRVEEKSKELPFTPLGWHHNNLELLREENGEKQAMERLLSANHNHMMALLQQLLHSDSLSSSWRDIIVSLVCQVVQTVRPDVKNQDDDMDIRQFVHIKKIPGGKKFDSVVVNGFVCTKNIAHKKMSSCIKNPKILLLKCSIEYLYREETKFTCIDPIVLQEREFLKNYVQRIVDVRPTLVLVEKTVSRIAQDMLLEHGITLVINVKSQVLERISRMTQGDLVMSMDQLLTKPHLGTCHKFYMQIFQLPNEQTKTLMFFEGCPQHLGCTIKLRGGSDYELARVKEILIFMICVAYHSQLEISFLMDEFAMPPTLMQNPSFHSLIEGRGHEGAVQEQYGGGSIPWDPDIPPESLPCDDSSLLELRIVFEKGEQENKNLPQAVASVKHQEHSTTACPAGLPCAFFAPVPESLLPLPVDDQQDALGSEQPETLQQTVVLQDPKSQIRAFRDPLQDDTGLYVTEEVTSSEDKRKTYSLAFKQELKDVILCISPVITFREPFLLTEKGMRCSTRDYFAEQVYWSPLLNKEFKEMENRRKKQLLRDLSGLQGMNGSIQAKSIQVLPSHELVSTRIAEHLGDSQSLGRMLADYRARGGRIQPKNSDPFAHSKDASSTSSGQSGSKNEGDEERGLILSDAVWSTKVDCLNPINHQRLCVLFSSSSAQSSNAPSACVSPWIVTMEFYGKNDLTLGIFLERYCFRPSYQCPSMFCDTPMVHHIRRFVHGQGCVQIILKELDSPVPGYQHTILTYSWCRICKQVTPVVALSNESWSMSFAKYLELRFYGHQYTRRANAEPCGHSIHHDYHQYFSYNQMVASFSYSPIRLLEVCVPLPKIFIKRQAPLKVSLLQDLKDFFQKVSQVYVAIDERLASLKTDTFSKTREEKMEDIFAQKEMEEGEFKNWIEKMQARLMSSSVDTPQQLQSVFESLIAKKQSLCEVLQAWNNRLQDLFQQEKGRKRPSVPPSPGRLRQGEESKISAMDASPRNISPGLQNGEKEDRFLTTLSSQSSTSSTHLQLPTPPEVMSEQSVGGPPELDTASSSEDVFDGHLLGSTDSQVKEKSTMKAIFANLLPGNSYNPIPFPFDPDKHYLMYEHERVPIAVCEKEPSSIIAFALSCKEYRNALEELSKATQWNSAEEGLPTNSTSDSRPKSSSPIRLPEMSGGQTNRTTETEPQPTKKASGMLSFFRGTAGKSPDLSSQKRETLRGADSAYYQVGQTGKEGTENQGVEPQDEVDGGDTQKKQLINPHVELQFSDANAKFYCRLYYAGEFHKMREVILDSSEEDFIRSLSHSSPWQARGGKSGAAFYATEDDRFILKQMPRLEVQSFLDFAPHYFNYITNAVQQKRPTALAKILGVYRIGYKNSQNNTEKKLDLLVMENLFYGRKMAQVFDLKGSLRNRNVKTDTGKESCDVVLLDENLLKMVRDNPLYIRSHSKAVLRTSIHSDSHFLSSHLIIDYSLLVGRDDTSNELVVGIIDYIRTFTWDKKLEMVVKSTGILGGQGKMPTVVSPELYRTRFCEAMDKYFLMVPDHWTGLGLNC

Take `CNc1nc(N2CCOCC2)cc(-n2nc(-c3ccccc3)cc2C)n1` [Compound 85]: the concentration for half-maximal inhibition (IC50) against PIKFYVE [1] (Table 2) is 101 to 1000 nM. The 50% effective concentration (EC50) on PIKFYVE [2] was in the range of 0.5 to 5 µM.

As for `Cc1cccc(-c2cc(CN(C)C)n(-c3cc(N4CCOCC4)nc(OCCc4cnn(C)c4)n3)n2)c1` [Compound 86, N,N-dimethyl-1-(1-(2-(2-(1-methyl-1H-pyrazol-4-yl)ethoxy)-6-morpholinopyrimidin-4-yl)-3-(m-tolyl)-1H-pyrazol-5-yl)methanamine], the half-inhibitory concentration (IC50) against PIKFYVE [1] (Table 2) was less than 5 nM. For the same compound, the EC50 at PIKFYVE [2] lay in the range of 0.02 to 0.1 µM.

Compound `COc1cc(N2CCOCC2)nc(-n2ccc(-c3cccc(C)c3)n2)n1` [Compound 87, 4-(6-methoxy-2-(3-(m-tolyl)-1H-pyrazol-1-yl)pyrimidin-4-yl)morpholine] displayed a concentration for half-maximal inhibition (IC50) against PIKFYVE [1] (Table 2) of 101 to 1000 nM. In addition, the concentration giving a half-maximal response (EC50) at PIKFYVE [2] was 0.1 to 0.5 µM.

`CC(=O)c1nc(N2CCOCC2)cc(-n2ccc(-c3cccc(C)c3)n2)n1` [Compound 88, 1-(4-morpholino-6-(3-(m-tolyl)-1H-pyrazol-1-yl)pyrimidin-2-yl)ethan-1-one] had an IC50 on PIKFYVE [1] (Table 2) of less than 5 nM. This compound showed a concentration for a half-maximal effect (EC50) at PIKFYVE [2] of 0.1 to 0.5 µM.

On PIKFYVE [1] (Table 2), `CC(=O)NCCOc1nc(N2CCOCC2)cc(-n2ccc(-c3cccc(C)c3)n2)n1` [Compound 90, N-(2-((4-morpholino-6-(3-(m-tolyl)-1H-pyrazol-1-yl)pyrimidin-2-yl)oxy)ethyl) acetamide] gave an IC50 of less than 5 nM. Further, at PIKFYVE [2], the 50% effective concentration (EC50) was less than 0.02 µM.

For `Cc1cccc(-c2ccn(-c3cc(N4CCOCC4)nc(OCCOc4ccccc4)n3)n2)c1` [Compound 93, 4-(2-(2-phenoxyethoxy)-6-(3-(m-tolyl)-1H-pyrazol-1-yl)pyrimidin-4-yl)morpholine], on PIKFYVE [1] (Table 3), the IC50 lay within 10 to 100 nM. The EC50 on PIKFYVE [2] is 0.1 to 0.5 µM.

Turning to `Cc1cccc(-c2ccn(-c3cc(N4CCOCC4)nc(OCCc4cnccn4)n3)n2)c1` [Compound 94, 4-(2-(2-(pyrazin-2-yl)ethoxy)-6-(3-(m-tolyl)-1H-pyrazol-1-yl)pyrimidin-4-yl)morpholine], on PIKFYVE [1] (Table 3), the concentration for half-maximal inhibition (IC50) was less than 3 nM. At PIKFYVE [2], the EC50 was less than 0.02 µM.

`Cc1cccc(-c2ccn(-c3cc(N4CCOCC4)nc(OCc4ncccc4F)n3)n2)c1` [Compound 95, 4-(2-((3-fluoropyridin-2-yl)methoxy)-6-(3-(m-tolyl)-1H-pyrazol-1-yl)pyrimidin-4-yl)morpholine]: at PIKFYVE [1] (Table 3), the IC50 fell in the range of 3 to 10 nM. Also, at PIKFYVE [2], the EC50 lay within 0.02 to 0.1 µM.

Take `Cc1cccc(-c2ccn(-c3cc(N4CCOCC4)nc(OCCc4sc(C)nc4C)n3)n2)c1` [Compound 98, 4-(2-(2-(2,4-dimethylthiazol-5-yl)ethoxy)-6-(3-(m-tolyl)-1H-pyrazol-1-yl)pyrimidin-4-yl)morpholine]: the half-inhibitory concentration (IC50) on PIKFYVE [1] (Table 3) fell in the range of 3 to 10 nM. Besides, at PIKFYVE [2], the EC50 is less than 0.02 µM.

`Cc1cccc(-c2ccn(-c3cc(N4CCOCC4)nc(OCCNc4ccccc4)n3)n2)c1` [Compound 99, N-(2-((4-morpholino-6-(3-(m-tolyl)-1H-pyrazol-1-yl)pyrimidin-2-yl)oxy)ethyl)aniline]: the IC50 against PIKFYVE [1] (Table 3) was 10 to 100 nM. At PIKFYVE [2], this compound displayed an EC50 of 0.1 to 0.5 µM.

In turn, `Cc1cccc(-c2ccn(-c3cc(N4CCOCC4)nc(OCCN(C)c4ccccc4)n3)n2)c1` [Compound 100, N-methyl-N-(2-((4-morpholino-6-(3-(m-tolyl)-1H-pyrazol-1-yl)pyrimidin-2-yl)oxy)ethyl)aniline] had an IC50 on PIKFYVE [1] (Table 3) of 3 to 10 nM. For the same compound, the 50% effective concentration (EC50) at PIKFYVE [2] lay in the range of 0.1 to 0.5 µM.

The compound `Cc1cccc(-c2ccn(-c3cc(N4CCOCC4)nc(OCC4CC4)n3)n2)c1` [Compound 101, 4-(2-(cyclopropyl-methoxy)-6-(3-(m-tolyl)-1H-pyrazol-1-yl)pyrimidin-4-yl)morpholine] yielded an IC50 on PIKFYVE [1] (Table 3) of 3 to 10 nM. The compound also gave an EC50 on PIKFYVE [2] of 0.1 to 0.5 µM.

`C/C=C/COc1nc(N2CCOCC2)cc(-n2ccc(-c3cccc(C)c3)n2)n1` [Compound 102, (E)-4-(2-(but-2-en-1-yloxy)-6-(3-(m-tolyl)-1H-pyrazol-1-yl)pyrimidin-4-yl)morpholine] returned a 50% inhibitory concentration (IC50) on PIKFYVE [1] (Table 3) of less than 3 nM. Also, the concentration giving a half-maximal response (EC50) on PIKFYVE [2] is less than 0.02 µM.

With `CC#CCOc1nc(N2CCOCC2)cc(-n2ccc(-c3cccc(C)c3)n2)n1` [Compound 103, 4-(2-(but-2-yn-1-yloxy)-6-(3-(m-tolyl)-1H-pyrazol-1-yl)pyrimidin-4-yl)morpholine], the 50% inhibitory concentration (IC50) against PIKFYVE [1] (Table 3) was 3 to 10 nM. Also, the EC50 on PIKFYVE [2] lay in the range of 0.1 to 0.5 µM.

In turn, `CC#CCCOc1nc(N2CCOCC2)cc(-n2ccc(-c3cccc(C)c3)n2)n1` [Compound 104, 4-(2-(pent-3-yn-1-yloxy)-6-(3-(m-tolyl)-1H-pyrazol-1-yl)pyrimidin-4-yl)morpholine] came in with an IC50 against PIKFYVE [1] (Table 3) of less than 3 nM. Besides, the EC50 at PIKFYVE [2] was 0.02 to 0.1 µM.

Consider `COc1ccc(CCOc2nc(N3CCOCC3)cc(-n3ccc(-c4cccc(C)c4)n3)n2)cc1OC` [Compound 105, 4-(2-(3,4-dimethoxy-phenethoxy)-6-(3-(m-tolyl)-1H-pyrazol-1-yl)pyrimidin-4-yl)morpholine], for which the IC50 against PIKFYVE [1] (Table 3) is less than 3 nM. At PIKFYVE [2], the EC50 is less than 0.02 µM.

The compound `Cc1cccc(-c2ccn(-c3cc(N4CCOCC4)nc(O)n3)n2)c1` [Compound 106, 4-morpholino-6-(3-(m-tolyl)-1H-pyrazol-1-yl)pyrimidin-2-ol] returned an IC50 against PIKFYVE [1] (Table 3) of 10 to 100 nM. The EC50 at PIKFYVE [2] fell in the range of 0.5 to 5 µM.

In turn, `Cc1cccc(-c2ccn(-c3cc(N4CCOCC4)nc(N(C)C)n3)n2)c1` [Compound 107, N,N-dimethyl-4-morpholino-6-(3-(m-tolyl)-1H-pyrazol-1-yl)pyrimidin-2-amine] registered an IC50 against PIKFYVE [1] (Table 3) of 10 to 100 nM. Besides, the concentration giving a half-maximal response (EC50) on PIKFYVE [2] lay within 0.5 to 5 µM.

Consider `C#CCCCOc1nc(N2CCOCC2)cc(-n2ccc(-c3cccc(C)c3)n2)n1` [Compound 108, 4-(2-(pent-4-yn-1-yloxy)-6-(3-(m-tolyl)-1H-pyrazol-1-yl)pyrimidin-4-yl)morpholine], for which the IC50 at PIKFYVE [1] (Table 3) lay in the range of 3 to 10 nM. For the same compound, on PIKFYVE [2], the half-maximal effective concentration (EC50) was in the range of 0.02 to 0.1 µM.

`Cc1cccc(-c2ccn(-c3cc(N4CCOCC4)nc(OCC(=O)C4CC4)n3)n2)c1` [Compound 109, 1-cyclopropyl-2-((4-morpholino-6-(3-(m-tolyl)-1H-pyrazol-1-yl)pyrimidin-2-yl)oxy)ethan-1-one]: the IC50 on PIKFYVE [1] (Table 3) fell in the range of 3 to 10 nM. Also, the EC50 at PIKFYVE [2] was 0.02 to 0.1 µM.

Take `Cc1cccc(-c2ccn(-c3cc(N4CCOCC4)nc(OC4COC4)n3)n2)c1` [Compound 110, 4-(2-(oxetan-3-yloxy)-6-(3-(m-tolyl)-1H-pyrazol-1-yl)pyrimidin-4-yl)morpholine]: on PIKFYVE [1] (Table 3), the IC50 is less than 3 nM. The half-maximal effective concentration (EC50) on PIKFYVE [2] was 0.1 to 0.5 µM.

`Cc1cccc(-c2ccn(-c3cc(N4CCOCC4)nc(OCC(c4ccccc4)N(C)C)n3)n2)c1` (stereo not drawn) [Compound 111, N,N-dimethyl-2-((4-morpholino-6-(3-(m-tolyl)-1H-pyrazol-1-yl)pyrimidin-2-yl)oxy)-1-phenylethan-1-amine]: the IC50 against PIKFYVE [1] (Table 3) was 3 to 10 nM. The concentration for a half-maximal effect (EC50) at PIKFYVE [2] is more than 5 µM.

In turn, `Cc1cccc(-c2ccn(-c3cc(N4CCOCC4)nc(OCCCc4ccco4)n3)n2)c1` [Compound 112, 4-(2-(3-(furan-2-yl)propoxy)-6-(3-(m-tolyl)-1H-pyrazol-1-yl)pyrimidin-4-yl)morpholine] came in with a half-maximal inhibitory concentration (IC50) against PIKFYVE [1] (Table 3) of 10 to 100 nM. This compound also came in with an EC50 on PIKFYVE [2] of 0.5 to 5 µM.

In the case of `Cc1cccc(-c2ccn(-c3cc(N4CCOCC4)nc(OC(CN(C)C)c4ccccc4)n3)n2)c1` (stereo not drawn) [Compound 113, N,N-dimethyl-2-((4-morpholino-6-(3-(m-tolyl)-1H-pyrazol-1-yl)pyrimidin-2-yl)oxy)-2-phenylethan-1-amine], the half-maximal inhibitory concentration (IC50) on PIKFYVE [1] (Table 3) is less than 3 nM. Besides, the half-maximal effective concentration (EC50) at PIKFYVE [2] lay in the range of 0.1 to 0.5 µM.

As a reminder, the IC50 is the midpoint of a concentration-inhibition curve. A higher IC50 goes with weaker potency. In general, EC50 refers to the concentration at which the effect is half-maximal. A lower EC50 goes with higher potency in that assay.
